Source: patent US20180360972A1, “THERAPEUTIC COMPOUNDS” (REGENTS OF THE UNIVERSITY OF MINNESOTA, priority 2017, published 2018)
Square brackets hold non-standard residues; d marks the D form. Peptide text beside a SMILES is read from it. d2Nal = N[C@H](Cc1ccc2ccccc2c1)C(=O)O

Experiments:
[1] = molecular target: T1, hMC4R (Homo sapiens, UniProt P32245); assay: AlphaScreen cAMP functional bioassay, hMC4R; format: cell-based
T1 construct: Flag; expressed in transfected cells
Method: Upon agonist stimulation, melanocortin receptors are known to signal through a Gαs-protein mediated signaling pathway that results in intracellular cAMP accumulation.
Stable populations were selected for using G418 selection (0.7-1.0 mg/mL) and used in bioassays unless indicated otherwise. In vitro experimental ligands were dissolved to a 10^−2 M stock in DMSO and stored at −20° C. Subsequent dilutions were performed in each assay's specific buffer to achieve the final concentration in the well. The ligands were assayed as TFA salts.
AlphaScreen cAMP Functional Bioassay
The AlphaScreen® assay was performed as described by manufacturer.
Cells were removed from plates using Gibco® Versene solution and pelleted by centrifugation (Sorvall Super T21 high speed centrifuge, swinging bucket rotor) at 800 rpm for five minutes. […] A 10 μL aliquot of cell suspension was counted manually using a hemocytometer after addition of Trypan blue dye (BioRad). Cells were again pelleted by centrifugation, and DPBS was gently aspirated. The pelleted cells were then resuspended in a solution of freshly made stimulation buffer (Hank's Balanced Salt Solution [HBSS 10× [−] sodium bicarbonate] and [−] phenol red, Gibco®], 0.5 mM isobutylmethylxanthine [IBMX], 5 mM HEPES buffer solution [1M, Gibco®], 0.1% bovine serum albumin [BSA] in Milli-Q water, pH=7.4) and anti-cAMP acceptor beads (1.0 unit per well, AlphaScreen®). […] The cells were then stimulated with ligand diluted in stimulation buffer to achieve their final concentrations in the well ranging from 10^−13 to 10^−4 M. The stimulated plates were incubated in a dark laboratory drawer at room temperature for two hours.
Meanwhile, a biotinylated cAMP/streptavidin donor bead working solution was made by adding biotinylated cAMP (1 Unit/well, AlphaScreen®) and streptavidin donor beads (1 Unit/well, AlphaScreen®) to a lysis buffer (10% Tween-20, 5 mM HEPES buffer solution [1M, Gibco®], 0.1% bovine serum albumin [BSA] in Milli-Q water, pH=7.4). After the two hour stimulation, the biotinylated cAMP/Streptavidin donor bead working solution was added to each well under green light and mixed well by pipetting up and down. The cells were incubated for another two hours at room temperature in a dark drawer at room temperature. The plate was then read on an EnSpire™ Alpha plate reader using a pre-normalized assay protocol set by the manufacturer. Assays were performed with duplicate data points on each plate and repeated in at least three independent experiments.
Dose response curves were analyzed using the PRISM program (v4.0; GraphPad Inc.).
Target sequence in this assay (P32245 whole entry): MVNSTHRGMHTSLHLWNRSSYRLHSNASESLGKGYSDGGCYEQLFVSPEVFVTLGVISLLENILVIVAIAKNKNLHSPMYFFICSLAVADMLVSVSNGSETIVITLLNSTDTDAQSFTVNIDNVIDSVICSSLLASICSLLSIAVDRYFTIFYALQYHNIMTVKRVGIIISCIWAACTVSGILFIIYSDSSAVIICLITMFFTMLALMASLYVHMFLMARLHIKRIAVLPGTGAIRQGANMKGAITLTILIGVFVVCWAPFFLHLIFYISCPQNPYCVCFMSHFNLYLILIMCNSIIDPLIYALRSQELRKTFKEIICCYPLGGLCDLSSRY

[2] = molecular target: T1, hMC4R; assay: PRESTO-Tango β-arrestin recruitment assay; format: cell-based; details: for fold increase in β-arrestin recruitment compared to CJL-1-14: vs tetrapeptide CJL-1-14
Method: The PRESTO-Tango technology is an open-source resource that has been utilized to identify ligands for orphan receptors based on β-arrestin recruitment.
The plasmids and assay technology was kindly provided by the Bryan Roth laboratory (University of North Carolina at Chapel Hill) and are now available through ADDGENE (Kit # 1000000068).
The first day of the assay, HTLA cells were plated at approximately 1×10^6 cells per 10 cm plate and grown to 20-40% confluency. […] The third day, cells were removed from 10 cm plates using Gibco® Versene solution and pelleted by centrifugation (Sorvall Super T21 high speed centrifuge, swinging bucket rotor) at 800 rpm for five minutes at room temperature. Cells were manually counted on a hemocytometer and resuspended in 1% dialyzed FBS and 1% penicillin/streptomycin in DMEM to a final concentration of 400,000 cells/mL. […] Stimulated cells were incubated for 18 hours in 5% CO2 at 37° C. On the fifth day, the assay buffer and cell medium was removed by aspiration. […] After incubation, luminescence was then read on an EnSpire™ Alpha plate reader using a pre-normalized assay protocol for luminescence set by the manufacturer. Dose response curves were analyzed using the PRISM program (v4.0; GraphPad Inc.).
Target sequence in this assay (P32245 whole entry): as above

[3] = molecular target: mMC4R-NanoLuc and mMC4R-HaloTag homodimer (Mus musculus, UniProt P56450); assay: NanoBRET ligand-dependent modulation of BRET signal; details: 10^−5, 10^−7 and 10^−9 M vs assay buffer
Chain of mMC4R-NanoLuc and mMC4R-HaloTag homodimer (P56450 whole entry): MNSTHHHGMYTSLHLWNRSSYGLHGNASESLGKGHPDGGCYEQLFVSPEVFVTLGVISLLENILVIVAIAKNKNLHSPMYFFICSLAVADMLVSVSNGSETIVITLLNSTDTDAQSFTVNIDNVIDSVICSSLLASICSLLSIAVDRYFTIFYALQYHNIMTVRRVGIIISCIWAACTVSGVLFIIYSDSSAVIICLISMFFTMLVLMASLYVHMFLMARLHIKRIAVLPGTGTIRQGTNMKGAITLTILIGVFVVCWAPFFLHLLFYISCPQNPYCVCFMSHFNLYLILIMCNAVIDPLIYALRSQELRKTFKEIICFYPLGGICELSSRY
Chain of mMC4R-NanoLuc and mMC4R-HaloTag homodimer (P56450 whole entry): as above
Method: On the first day, cells were plated into 6 well plates in the morning. In the afternoon of the same day, cells were transiently transfected with mMC4R-NanoLuc® fusion protein and the MC4R-HaloTag® fusion protein by adding FuGene6 Transfection (8 μL/well, Promega), DNA (2 μg/well) in OptiMem medium (Invitrogen) at a total volume of 100 μL/well. […] Cells were incubated with transfection reagent overnight at 5% CO2 at 37° C.
This provides the background signal and was subtracted from the final experimental signal. Plates were then developed 48 to 60 hours after transfection. Two hours before the plates were developed, 10 μL of a 10× aliquot of the ligand diluted in assay buffer was added to each well to yield the final in well concentration (10^−5, 10^−7, or 10^−9M) of each compound. For the assay buffer control, 10 μL of assay buffer was added instead of compound. […] The standard error of the mean (SEM) was derived from at least three independent experiments.

[4] = molecular target: T1, hMC4R; assay: cAMP Signaling | EC50 (nM)
Method: Table printed on a drawing sheet, Figure 20
The cAMP signaling potency was determined by AlphaScreen™ assays. […] The reported errors are the standard error of the mean (SEM) determined from at least three independent experiments. Changes less than 3-fold were considered to be within the inherent experimental assay error.
Target sequence in this assay (P32245 whole entry, looked up): as the sequence (P32245 whole entry) above

[5] = molecular target: T1, hMC4R; assay: β-Arrestin Recruitment | EC50 (nM)
Target sequence in this assay (P32245 whole entry, looked up): as the sequence (P32245 whole entry) above

[6] = molecular target: mMC5R (Mus musculus, UniProt P41149); assay: mMC5R | Agonist EC50 (nM)
Chain of mMC5R (P41149 whole entry, looked up): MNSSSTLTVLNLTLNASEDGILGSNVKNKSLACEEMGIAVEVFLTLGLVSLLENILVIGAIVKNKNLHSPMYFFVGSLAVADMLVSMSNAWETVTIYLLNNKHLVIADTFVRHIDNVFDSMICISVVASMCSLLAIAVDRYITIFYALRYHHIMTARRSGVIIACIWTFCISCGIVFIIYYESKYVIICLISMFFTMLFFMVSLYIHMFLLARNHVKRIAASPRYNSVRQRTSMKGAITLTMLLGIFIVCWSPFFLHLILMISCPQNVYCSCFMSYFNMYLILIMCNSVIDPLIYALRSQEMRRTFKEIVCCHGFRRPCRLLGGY
Method: Table printed on a drawing sheet, Figure 23
The cAMP signaling potency was determined by AlphaScreen® assays. The reported errors are the standard error of the mean (SEM) determined from at least three independent experiments. Changes less than 3-fold were considered to be within the inherent experimental assay error. NS means compound was not soluble in bioassay compatible solvent.

CC(=O)N[C@@H](Cc1c[nH]cn1)C(=O)N[C@H](Cc1ccc2ccccc2c1)C(=O)N[C@@H](CCCNC(=N)N)C(=O)N[C@@H](Cc1c[nH]c2ccccc12)C(=O)NCCCOCCOCCOCCCNC(=O)COCC(=O)N[C@@H](Cc1c[nH]cn1)C(=O)N[C@H](Cc1ccc2ccccc2c1)C(=O)N[C@@H](CCCNC(=N)N)C(=O)N[C@@H](Cc1c[nH]c2ccccc12)C(N)=O [CJL-1-140]
cAMP accumulation of that seen with NDP-MSH ([1]; at 10 μM): 70% | β-arrestin recruitment efficacy (in words) ([2]; relative to NDP-MSH control, up to 10 μM): equal or lower β-arrestin recruitment | change in BRET signal (in words) [3]: no significant changes in BRET signal

CC(=O)N[C@@H](Cc1c[nH]cn1)C(=O)N[C@H](Cc1ccccc1)C(=O)N[C@@H](CCCNC(=N)N)C(=O)N[C@@H](Cc1c[nH]c2ccccc12)C(=O)NCCCOCCOCCOCCCNC(=O)COCC(N)=O [CJL-5-35-4, reference compound]
fold increase in cAMP potency compared to CJL-1-14 ([1]; vs monovalent tetrapeptide CJL-1-14): 3 fold | fold increase in β-arrestin recruitment compared to CJL-1-14 [2]: 5 fold

N=C(N)NCCC[C@H](NC(=O)[C@@H](Cc1ccccc1)NC(=O)[C@H](Cc1c[nH]cn1)NC(=O)COCC(=O)NCCCOCCOCCOCCCN)C(=O)N[C@@H](Cc1c[nH]c2ccccc12)C(N)=O [CJL-1-116]
fold increase in β-arrestin recruitment compared to CJL-1-14 [2]: < 3 fold | EC50 [4]: 2 ± 0.3 nM | EC50 [5]: 140 ± 70 nM

CC(=O)N[C@@H](Cc1c[nH]cn1)C(=O)N[C@H](Cc1ccccc1)C(=O)N[C@@H](CCCNC(=N)N)C(=O)N[C@@H](Cc1c[nH]c2ccccc12)C(N)=O [CJL-1-14, Ac-His-DPhe-Arg-Trp-NH2]
EC50 [6]: 9.8 ± 2.7 nM

CC(=O)N[C@@H](Cc1c[nH]cn1)C(=O)N[C@H](Cc1ccc2ccccc2c1)C(=O)N[C@@H](CCCNC(=N)N)C(=O)N[C@@H](Cc1c[nH]c2ccccc12)C(=O)N1CCC[C@H]1C(=O)NCC(=O)N1CCC[C@H]1C(=O)NCC(=O)N1CCC[C@H]1C(=O)NCC(=O)N1CCC[C@H]1C(=O)NCC(=O)N1CCC[C@H]1C(=O)NCC(=O)N1CCC[C@H]1C(=O)NCC(=O)N[C@@H](Cc1c[nH]cn1)C(=O)N[C@H](Cc1ccccc1)C(=O)N[C@@H](CCCNC(=N)N)C(=O)N[C@@H](Cc1c[nH]c2ccccc12)C(N)=O [CJL-1-63, Ac-His-DNal(2′)-Arg-Trp-(Pro-Gly)6-His-DPhe-Arg-Trp-NH2] (Ac-H[d2Nal]RWPGPGPGPGPGPGH[dF]RW-NH2)
cAMP agonist potency (in words) ([1]; HEK293 cells stably expressing hMC4R): single digit nanomolar agonists | β-arrestin response compared to maximal efficacy of NDP-MSH ([2]; at 10 μM): 55% | EC50 [4]: 1.9 ± 0.2 nM
